Test system: COG-LL-317
Assay: selective drug sensitivity score (sDSS, relative to normal bone marrow) (sDSS (score)); higher = more potent and effective on the cell line relative to normal bone marrow cells
Details: 72 h
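Further: ALL cell lines in 384-well plates, five doses spanning 10,000-fold, each plate scaled between vehicle and 100 µmol/L benzalkonium chloride controls, sDSS an adapted area-under-curve metric.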

Row | Compound | selective drug sensitivity score
1 | Cc1ccc(NC(=O)c2ccc(CN3CCN(C)CC3)cc2)cc1Nc1nc(-c2cccnc2)cs1 [Masitinib] (top concentration 10000 nM) | 3.32
2 | CCN(CC)CCCC(C)Nc1c2ccc(Cl)cc2nc2ccc(OC)cc12 (stereo not given) [Mepacrine] (top concentration 50000 nM) | -0.5
3 | COc1ccc(-c2ccc3ncc4c(c3c2)n(-c2ccc(N3CCNCC3)c(C(F)(F)F)c2)c(=O)n4C)cn1 [NVP-BGT226] (top concentration 1000 nM) | 0.72
4 | COc1nc(N)nc2c1ncn2[C@@H]1O[C@H](CO)[C@@H](O)[C@@H]1O [Nelarabine] (top concentration 10000 nM) | 4.58
5 | Cc1cn(-c2cc(NC(=O)c3ccc(C)c(Nc4nccc(-c5cccnc5)n4)c3)cc(C(F)(F)F)c2)cn1 [Nilotinib] (top concentration 10000 nM) | 0
6 | NC(=O)c1cccc2cn(-c3ccc(C4CCCNC4)cc3)nc12 (stereo not given) [Niraparib] (top concentration 10000 nM) | 7.88
7 | COc1ccc(C[C@H](NC(=O)[C@H](C)NC(=O)CN2CCOCC2)C(=O)N[C@@H](Cc2ccccc2)C(=O)[C@@]2(C)CO2)cc1 [ONX-0914] (top concentration 10000 nM) | 4.7
8 | CC(=O)c1cnc2ccc(-c3cc(Cl)c(O)c(Cl)c3)nc2c1N[C@H]1CC[C@H](CN(C)C)CC1 [OTS167] (top concentration 1000 nM) | 3.58
9 | COC(=O)C[C@](O)(CCCC(C)(C)O)C(=O)O[C@@H]1C(OC)=C[C@]23CCCN2CCc2cc4c(cc2[C@H]13)OCO4 [Omacetaxine] (top concentration 10000 nM) | 7.12

Test system: COG-LL-319h
Assay: as above
Details: 72 h

Row | Compound | selective drug sensitivity score
10 | CCOC(=O)CCNc1cc(N2CCc3ccccc3CC2)nc(-c2ccccn2)n1 [GSK-J4] (top concentration 100000 nM) | 3.22
11 | Cc1cc(Nc2cc(CN3CCOCC3)c3nc(C)c(Cc4ccc(Cl)cc4F)n3n2)n[nH]1 [Gandotinib] (top concentration 10000 nM) | 8.68
12 | NC(=O)NO [Hydroxyurea] (top concentration 1000000 nM) | 9.26
13 | Cc1ccc(NC(=O)c2ccc(CN3CCN(C)CC3)cc2)cc1Nc1nccc(-c2cccnc2)n1 [Imatinib] (top concentration 10000 nM) | 0.06
14 | CC(C)NC[C@@H](C(=O)N1CCN(c2ncnc3c2[C@H](C)C[C@H]3O)CC1)c1ccc(Cl)cc1 [Ipatasertib] (top concentration 10000 nM) | 2.4
15 | CCC(C)n1ncn(-c2ccc(N3CCN(c4ccc(OCC5COC(Cn6cncn6)(c6ccc(Cl)cc6Cl)O5)cc4)CC3)cc2)c1=O (stereo not given) [Itraconazole] (top concentration 5000 nM) | 10.7
16 | Cc1sc2c(c1C)C(c1ccc(Cl)cc1)=N[C@@H](CC(=O)OC(C)(C)C)c1nnc(C)n1-2 [JQ1] (top concentration 10000 nM) | 12.1
17 | CCNC(=O)c1noc(-c2cc(C(C)C)c(O)cc2O)c1-c1ccc(CN2CCOCC2)cc1 [Luminespib] (top concentration 1000 nM) | 3.1
18 | O=C(c1cccc(Cl)c1F)N1CCN(Cc2cccc(Nc3nccs3)n2)CC1 [MK-8745] (top concentration 10000 nM) | 14.3
19 | Cc1ccc(NC(=O)c2ccc(CN3CCN(C)CC3)cc2)cc1Nc1nc(-c2cccnc2)cs1 [Masitinib] (top concentration 10000 nM) | -3.88
20 | CCN(CC)CCCC(C)Nc1c2ccc(Cl)cc2nc2ccc(OC)cc12 (stereo not given) [Mepacrine] (top concentration 50000 nM) | -2.9
21 | COc1ccc(-c2ccc3ncc4c(c3c2)n(-c2ccc(N3CCNCC3)c(C(F)(F)F)c2)c(=O)n4C)cn1 [NVP-BGT226] (top concentration 1000 nM) | 0.72
22 | COc1nc(N)nc2c1ncn2[C@@H]1O[C@H](CO)[C@@H](O)[C@@H]1O [Nelarabine] (top concentration 10000 nM) | 4.78
23 | Cc1cn(-c2cc(NC(=O)c3ccc(C)c(Nc4nccc(-c5cccnc5)n4)c3)cc(C(F)(F)F)c2)cn1 [Nilotinib] (top concentration 10000 nM) | 8.2
24 | NC(=O)c1cccc2cn(-c3ccc(C4CCCNC4)cc3)nc12 (stereo not given) [Niraparib] (top concentration 10000 nM) | 14.2
25 | COc1ccc(C[C@H](NC(=O)[C@H](C)NC(=O)CN2CCOCC2)C(=O)N[C@@H](Cc2ccccc2)C(=O)[C@@]2(C)CO2)cc1 [ONX-0914] (top concentration 10000 nM) | -0.8
26 | CC(=O)c1cnc2ccc(-c3cc(Cl)c(O)c(Cl)c3)nc2c1N[C@H]1CC[C@H](CN(C)C)CC1 [OTS167] (top concentration 1000 nM) | 6.58
27 | COC(=O)C[C@](O)(CCCC(C)(C)O)C(=O)O[C@@H]1C(OC)=C[C@]23CCCN2CCc2cc4c(cc2[C@H]13)OCO4 [Omacetaxine] (top concentration 10000 nM) | 4.12

Test system: COG-LL-355h
Assay: as above
Details: 72 h

Row | Compound | selective drug sensitivity score
28 | CCOC(=O)CCNc1cc(N2CCc3ccccc3CC2)nc(-c2ccccn2)n1 [GSK-J4] (top concentration 100000 nM) | -4.78
29 | Cc1cc(Nc2cc(CN3CCOCC3)c3nc(C)c(Cc4ccc(Cl)cc4F)n3n2)n[nH]1 [Gandotinib] (top concentration 10000 nM) | 2.18
30 | NC(=O)NO [Hydroxyurea] (top concentration 1000000 nM) | 0.66
31 | Cc1ccc(NC(=O)c2ccc(CN3CCN(C)CC3)cc2)cc1Nc1nccc(-c2cccnc2)n1 [Imatinib] (top concentration 10000 nM) | -0.44
32 | CC(C)NC[C@@H](C(=O)N1CCN(c2ncnc3c2[C@H](C)C[C@H]3O)CC1)c1ccc(Cl)cc1 [Ipatasertib] (top concentration 10000 nM) | 5.8
33 | CCC(C)n1ncn(-c2ccc(N3CCN(c4ccc(OCC5COC(Cn6cncn6)(c6ccc(Cl)cc6Cl)O5)cc4)CC3)cc2)c1=O (stereo not given) [Itraconazole] (top concentration 5000 nM) | -4.22
34 | Cc1sc2c(c1C)C(c1ccc(Cl)cc1)=N[C@@H](CC(=O)OC(C)(C)C)c1nnc(C)n1-2 [JQ1] (top concentration 10000 nM) | 3.72
35 | CCNC(=O)c1noc(-c2cc(C(C)C)c(O)cc2O)c1-c1ccc(CN2CCOCC2)cc1 [Luminespib] (top concentration 1000 nM) | 6.5
36 | O=C(c1cccc(Cl)c1F)N1CCN(Cc2cccc(Nc3nccs3)n2)CC1 [MK-8745] (top concentration 10000 nM) | 2.7
37 | Cc1ccc(NC(=O)c2ccc(CN3CCN(C)CC3)cc2)cc1Nc1nc(-c2cccnc2)cs1 [Masitinib] (top concentration 10000 nM) | -1.78
38 | CCN(CC)CCCC(C)Nc1c2ccc(Cl)cc2nc2ccc(OC)cc12 (stereo not given) [Mepacrine] (top concentration 50000 nM) | -3.3
39 | COc1ccc(-c2ccc3ncc4c(c3c2)n(-c2ccc(N3CCNCC3)c(C(F)(F)F)c2)c(=O)n4C)cn1 [NVP-BGT226] (top concentration 1000 nM) | 6.42
40 | COc1nc(N)nc2c1ncn2[C@@H]1O[C@H](CO)[C@@H](O)[C@@H]1O [Nelarabine] (top concentration 10000 nM) | -6.22
41 | Cc1cn(-c2cc(NC(=O)c3ccc(C)c(Nc4nccc(-c5cccnc5)n4)c3)cc(C(F)(F)F)c2)cn1 [Nilotinib] (top concentration 10000 nM) | 0.6
42 | NC(=O)c1cccc2cn(-c3ccc(C4CCCNC4)cc3)nc12 (stereo not given) [Niraparib] (top concentration 10000 nM) | 4.68
43 | COc1ccc(C[C@H](NC(=O)[C@H](C)NC(=O)CN2CCOCC2)C(=O)N[C@@H](Cc2ccccc2)C(=O)[C@@]2(C)CO2)cc1 [ONX-0914] (top concentration 10000 nM) | 8.7
44 | CC(=O)c1cnc2ccc(-c3cc(Cl)c(O)c(Cl)c3)nc2c1N[C@H]1CC[C@H](CN(C)C)CC1 [OTS167] (top concentration 1000 nM) | 6.18
45 | COC(=O)C[C@](O)(CCCC(C)(C)O)C(=O)O[C@@H]1C(OC)=C[C@]23CCCN2CCc2cc4c(cc2[C@H]13)OCO4 [Omacetaxine] (top concentration 10000 nM) | 4.62

Source: the supplement of paper PMC8967900
